Laboratory results taken from US11377632B2, “Production method for bacterial cells” (IDEMITSU KOSAN CO., LTD., priority 2017, dated 2022).

Tested on: Bacillus subtilis ITB 105 strain (NITE BP-01727)
Assay: Three-stage liquid culture with streptomycin added; colony count (CFU) and abnormal colony morphology on agar
Type: cell-based
Conditions: for Appearance (%) of abnormal colonies / CFU / Number of abnormal colonies / Number of normal colonies: third stage, 30 hour
Procedure: Using a 500 mL Erlenmeyer flask (with a baffle), 100 mL each of liquid medium containing the components of the medium listed in Table 1 was prepared, and then autoclave sterilization was performed. In order to avoid the Maillard reaction, glucose was separately sterilized and mixed aseptically.
The test sections were set as described in Table 2. According to the conditions for each test section, an aqueous solution of filter-sterilized streptomycin was aseptically added to the medium.
One platinum loop was taken from a colony of Bacillus subtilis ITB 105 strain (NITE BP-01727) grown on a common agar medium and inoculated, and then shake culture was performed at 30° C. and 150 rpm (first stage). Eighteen hours later, 1 mL of each culture solution was aliquoted and transferred to a fresh medium, and then shaking culture was performed in the same manner (second stage). After 24 hours, 1 mL of each culture solution was aliquoted and then transferred to a fresh medium, and then shaking culture was performed in the same manner (third stage). The third-stage culture solution was sampled after 30 hours.
The resulting culture solutions were each diluted 1×10^7 folds with sterile water, and 100 μL of the diluted solution was applied to a common agar medium and then cells were cultured overnight at 37° C. The number of colonies that had appeared was determined to calculate CFU. Colonies that had appeared and clearly differed in colony morphology compared with the parent strain on the basis of the criteria in Table 3 were determined as abnormal colonies and the number of the abnormal appearing colonies was determined and then the proportion thereof in the total number of colonies was calculated. As a result, in the three-stage culture, abnormal appearing colonies accounted for about 5% when no antibiotic was added.

[1] = Test section No. 2: streptomycin 5 ppm in first and second stage, none in third
[2] = Test section No. 3: streptomycin 10 ppm in first and second stage, none in third
[3] = Test section No. 4: streptomycin 15 ppm in first and second stage, none in third
[4] = Test section No. 5: streptomycin 20 ppm in first and second stage, none in third
[5] = Test section No. 6: streptomycin 30 ppm in first and second stage, none in third
[6] = Test section No. 7: streptomycin 30 ppm in first, second and third stage
[7] = streptomycin added in all of the first, second and third stages

SMILES: [H]/N=C(/N)N[C@H]1[C@H](O)[C@@H](O)[C@H](O[C@@H]2O[C@@H](C)[C@](O)(C=O)[C@H]2O[C@@H]2O[C@@H](CO)[C@H](O)[C@@H](O)[C@@H]2NC)[C@@H](N/C(N)=N\[H])[C@@H]1O [Streptomycin, streptomycin]
- Appearance (%) of abnormal colonies [1]: 0.0%
- CFU [1]: 8.8e+09 mL⁻¹
- Number of abnormal colonies [1]: 0
- Number of normal colonies [1]: 88
- Appearance (%) of abnormal colonies [2]: 0.0%
- CFU [2]: 1.09e+10 mL⁻¹
- Number of abnormal colonies [2]: 0
- Number of normal colonies [2]: 109
- Appearance (%) of abnormal colonies [3]: 0.0%
- CFU [3]: 7e+09 mL⁻¹
- Number of abnormal colonies [3]: 0
- Number of normal colonies [3]: 70
- Appearance (%) of abnormal colonies [4]: 0.0%
- CFU [4]: 8.2e+09 mL⁻¹
- Number of abnormal colonies [4]: 0
- Number of normal colonies [4]: 82
- Appearance (%) of abnormal colonies [5]: 0.0%
- CFU [5]: 6.3e+09 mL⁻¹
- Number of abnormal colonies [5]: 0
- Number of normal colonies [5]: 63
- Appearance (%) of abnormal colonies [6]: 0.0%
- CFU [6]: 4.9e+09 mL⁻¹
- Number of abnormal colonies [6]: 0
- Number of normal colonies [6]: 49
- Appearance of abnormal colonies [7]: no abnormal colony appeared
- Number of appearing colonies and number of normal appearing colonies [7]: low
- Productivity of bacterial cells (streptomycin added in all of the first, second and third stages, compared with Test section Nos. 2 to 6): lower than those of Test section Nos. 2 to 6
- Appearance of abnormal colonies (streptomycin added in the first and second stages, none in the third stage): no appearance of abnormal colonies was observed
